# According to PubChem BioAssay AID1963845 (Molecular Pharmacology Branch, DTP, NCI, 2024):
# Tested on: 429239-143-T-J1-PDC complex spheroid viability
# Assay: Anticancer human tumor 429239-143-T-J1-PDC patient-derived small cell lung carcinoma cell line growth inhibition [POLQ]
# Conditions: for IC50: curve of first compound; for viability, T/C: stronger effect = lower value
# Procedure, shortened: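 Three-cell-type spheroids modelling solid tumor plus stroma served as the readout system; POL inhibitors were tested individually and in combination, concentration ranges set by clinical Cmax where known.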
# [1] = second compound 0.0316 µM, first compound 0.0316 µM
# [2] = second compound 0.0316 µM, first compound 0.1 µM
# [3] = second compound 0.0316 µM, first compound 0.316 µM
# [4] = second compound 0.0316 µM, first compound 1 µM
# [5] = second compound 0.1 µM, first compound 0.0316 µM
# [6] = second compound 0.1 µM, first compound 0.1 µM
# [7] = second compound 0.1 µM, first compound 0.316 µM
# [8] = second compound 0.1 µM, first compound 1 µM
# [9] = second compound 0.316 µM, first compound 0.0316 µM
# [10] = second compound 0.316 µM, first compound 0.1 µM
# [11] = second compound 0.316 µM, first compound 0.316 µM
# [12] = second compound 0.316 µM, first compound 1 µM
# [13] = second compound 1 µM, first compound 0.0316 µM
# [14] = second compound 1 µM, first compound 0.1 µM
# [15] = second compound 1 µM, first compound 0.316 µM
# [16] = second compound 1 µM, first compound 1 µM
# [17] = second compound 3.16 µM, first compound 0.0316 µM
# [18] = second compound 3.16 µM, first compound 0.1 µM
# [19] = second compound 3.16 µM, first compound 0.316 µM
# [20] = second compound 3.16 µM, first compound 1 µM
# [21] = second compound 10 µM, first compound 0.0316 µM
# [22] = second compound 10 µM, first compound 0.1 µM
# [23] = second compound 10 µM, first compound 0.316 µM
# [24] = second compound 10 µM, first compound 1 µM
# 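Note: luminescence signal used as surrogate measure of viable cells; spheroids exposed to compounds for seven days before readout.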
# 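Throughout, for viability, T/C: 100% = DMSO vehicle control viability as luminescence relative to vehicle.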
structure (smiles),measurement,setting,value
COc1ccc([C@@H](O)c2cc(-c3ncnc4cc(N5CCOCC5)ccc34)c(F)cc2Cl)nn1 + COC1C(OC(N)=O)C(O)C(Oc2ccc3c(O)c(NC(=O)c4ccc(O)c(CC=C(C)C)c4)c(=O)oc3c2C)OC1(C)C,IC50,second compound 0.0316 µM,3070 nM
same,IC50,second compound 0.1 µM,3330 nM
same,IC50,second compound 0.316 µM,3950 nM
same,IC50,second compound 1 µM,3000 nM
same,IC50,second compound 3.16 µM,3780 nM
same,IC50,second compound 10 µM,3640 nM
same,"viability, T/C",[1],99.5%
same,"viability, T/C",[2],89.1%
same,"viability, T/C",[3],94.5%
same,"viability, T/C",[4],85.6%
same,"viability, T/C","second compound 0.0316 µM, first compound 3.16 µM",49.1%
same,"viability, T/C","second compound 0.0316 µM, first compound 10 µM",8.54%
same,"viability, T/C",[5],96.2%
same,"viability, T/C",[6],87.7%
same,"viability, T/C",[7],100%
same,"viability, T/C",[8],87.2%
same,"viability, T/C","second compound 0.1 µM, first compound 3.16 µM",51.9%
same,"viability, T/C","second compound 0.1 µM, first compound 10 µM",10.8%
same,"viability, T/C",[9],109%
same,"viability, T/C",[10],101%
same,"viability, T/C",[11],99.4%
same,"viability, T/C",[12],85.4%
same,"viability, T/C","second compound 0.316 µM, first compound 3.16 µM",60%
same,"viability, T/C","second compound 0.316 µM, first compound 10 µM",9.63%
same,"viability, T/C",[13],103%
same,"viability, T/C",[14],96.8%
same,"viability, T/C",[15],92.5%
same,"viability, T/C",[16],76.4%
same,"viability, T/C","second compound 1 µM, first compound 3.16 µM",48.7%
same,"viability, T/C","second compound 1 µM, first compound 10 µM",9.8%
same,"viability, T/C",[17],96.6%
same,"viability, T/C",[18],102%
same,"viability, T/C",[19],91.1%
same,"viability, T/C",[20],93.4%
same,"viability, T/C","second compound 3.16 µM, first compound 3.16 µM",57%
same,"viability, T/C","second compound 3.16 µM, first compound 10 µM",11.2%
same,"viability, T/C",[21],107%
same,"viability, T/C",[22],107%
same,"viability, T/C",[23],95.3%
same,"viability, T/C",[24],78.3%
same,"viability, T/C","second compound 10 µM, first compound 3.16 µM",59.3%
same,"viability, T/C","second compound 10 µM, first compound 10 µM",8.07%
COc1cccc(OCCCN)c1-c1cc(Nc2cnc(C#N)cn2)n[nH]1 + COC1C(OC(N)=O)C(O)C(Oc2ccc3c(O)c(NC(=O)c4ccc(O)c(CC=C(C)C)c4)c(=O)oc3c2C)OC1(C)C,IC50,second compound 0.0316 µM,82.1 nM
same,IC50,second compound 0.1 µM,69 nM
same,IC50,second compound 0.316 µM,69.6 nM
same,IC50,second compound 1 µM,64.5 nM
same,IC50,second compound 3.16 µM,57.9 nM
same,IC50,second compound 10 µM,54.9 nM
same,"viability, T/C","second compound 0.0316 µM, first compound 0.00316 µM",98.8%
same,"viability, T/C","second compound 0.0316 µM, first compound 0.01 µM",94.7%
same,"viability, T/C",[1],79.8%
same,"viability, T/C",[2],42.2%
same,"viability, T/C",[3],32%
same,"viability, T/C",[4],21.3%
same,"viability, T/C","second compound 0.1 µM, first compound 0.00316 µM",93.6%
same,"viability, T/C","second compound 0.1 µM, first compound 0.01 µM",92.8%
same,"viability, T/C",[5],66.6%
same,"viability, T/C",[6],42.1%
same,"viability, T/C",[7],26.6%
same,"viability, T/C",[8],21%
same,"viability, T/C","second compound 0.316 µM, first compound 0.00316 µM",99.7%
same,"viability, T/C","second compound 0.316 µM, first compound 0.01 µM",99%
same,"viability, T/C",[9],72.8%
same,"viability, T/C",[10],39.1%
same,"viability, T/C",[11],27.1%
same,"viability, T/C",[12],20.4%
same,"viability, T/C","second compound 1 µM, first compound 0.00316 µM",90.8%
same,"viability, T/C","second compound 1 µM, first compound 0.01 µM",99.1%
same,"viability, T/C",[13],70.9%
same,"viability, T/C",[14],37.3%
same,"viability, T/C",[15],30.3%
same,"viability, T/C",[16],24%
same,"viability, T/C","second compound 3.16 µM, first compound 0.00316 µM",96.3%
same,"viability, T/C","second compound 3.16 µM, first compound 0.01 µM",99.4%
same,"viability, T/C",[17],66.7%
same,"viability, T/C",[18],35.3%
same,"viability, T/C",[19],28.5%
same,"viability, T/C",[20],23.1%
same,"viability, T/C","second compound 10 µM, first compound 0.00316 µM",83.6%
same,"viability, T/C","second compound 10 µM, first compound 0.01 µM",83.5%
same,"viability, T/C",[21],64.7%
same,"viability, T/C",[22],33.5%
same,"viability, T/C",[23],34%
same,"viability, T/C",[24],23.4%
